{"source": "patent US8153397B2", "about": "(priority 1993, dated 2012)"}
{"molecular_target": "rBoNT/A LC (Clostridium botulinum, UniProt P0DPI0)", "sequence (P0DPI0 3-448, added parts left off)": "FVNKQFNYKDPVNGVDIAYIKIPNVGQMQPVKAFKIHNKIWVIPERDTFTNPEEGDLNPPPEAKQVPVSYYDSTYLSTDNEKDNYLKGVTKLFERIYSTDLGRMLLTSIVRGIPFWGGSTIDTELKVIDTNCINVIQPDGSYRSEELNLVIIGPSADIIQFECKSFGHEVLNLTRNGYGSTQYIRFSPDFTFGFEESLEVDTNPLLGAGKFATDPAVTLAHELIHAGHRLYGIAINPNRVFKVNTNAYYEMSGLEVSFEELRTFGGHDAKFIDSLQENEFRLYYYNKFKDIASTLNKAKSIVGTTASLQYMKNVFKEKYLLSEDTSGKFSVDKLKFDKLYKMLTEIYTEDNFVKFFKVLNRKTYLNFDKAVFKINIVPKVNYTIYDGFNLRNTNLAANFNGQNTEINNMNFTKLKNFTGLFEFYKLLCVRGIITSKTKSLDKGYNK", "type": "biochemical", "units": {"% Activity": "%"}}
{"compound": "[Cl-].[Cl-].[Mg+2]", "note": "[MgCl2]", "% Activity": 90}
{"compound": "N[C@@H](CS)C(=O)O", "note": "[L-Cysteine]", "% Activity": 20, "effect on activity of the rBoNT/A LC": "inhibited the activity to various extents"}
{"compound": "[Ca+2].[Cl-].[Cl-]", "note": "[CaCl2]", "% Activity": 75}
{"compound": "[Cl][Mn][Cl]", "note": "[MnCl2]", "% Activity": 40, "effect on activity of the rBoNT/A LC": "inhibited the LC reaction to various extents"}
{"compound": "O[C@H](CS)[C@@H](O)CS", "note": "[Dithioerythreitol]", "% Activity": 60, "effect on activity of the rBoNT/A LC": "inhibited the activity to various extents"}
{"compound": "OCCS", "note": "[β-Mercaptoethanol]", "% Activity": 120, "effect on activity of the rBoNT/A LC": "stimulated the activity"}
{"compound": "O=C(O)c1cc[c]([Hg][Cl])cc1", "note": "[p-C1-Mercuribenzoate]", "% Activity": "00", "effect on activity of the rBoNT/A LC": "completely abolished"}
{"compound": "NC(=O)CI", "note": "[Iodoacetamide]", "% Activity": 80}
{"compound": "[Cl][Fe][Cl]", "note": "[FeCl2]", "% Activity": 35}
{"compound": "O[C@H](CS)[C@H](O)CS", "note": "[Dithiothreitol]", "% Activity": 45, "effect on activity of the rBoNT/A LC": "significantly inhibited"}
{"compound": "[Cl][Hg][Cl]", "note": "[Mercuric chloride]", "% Activity": "00", "effect on activity of the rBoNT/A LC": "completely abolished"}
{"compound": "O=C(O)CN(CCN(CC(=O)O)CC(=O)O)CC(=O)O", "note": "[EDTA]", "% Activity": "00", "effect on activity of the rBoNT/A LC": "completely inhibited"}
{"compound": "CoCl2", "% Activity": 90}
{"compound": "[Cl-].[Cl-].[Zn+2]", "note": "[ZnCl2]", "stimulation of activity": "5%-10%"}
{"compound": "O=S(=O)([O-])[O-].[Cu+2]", "note": "[CuSO4]", "% Activity": 95}
{"compound": "O=S(=O)([O-])[O-].[Ni+2]", "note": "[NiSO4]", "% Activity": 55, "effect on activity of the rBoNT/A LC": "inhibited the LC reaction to various extents"}
{"compound": "N[C@@H](CCC(=O)N[C@@H](CSN=O)C(=O)NCC(=O)O)C(=O)O", "note": "[S-Nitrosoglutathione]", "% Activity": 55}
{"compound": "N[C@@H](CCC(=O)N[C@@H](CS)C(=O)NCC(=O)O)C(=O)O", "note": "[Glutathione, reduced]", "% Activity": 75, "effect on activity of the rBoNT/A LC": "inhibited the activity to various extents"}
